Reference: patent publication US10844091B2 (priority 2017, dated 2020)
Marks after values point to notes of the source that are not given here. Non-standard residues stand in square brackets, D forms with d.

Tests used:
[1] = test system: intact animals and animals with reserpine-induced depression; test: Open Field Test, intact animals and animals with reserpine-induced depression; type: in vivo, rat; details: for Emotional reactions and concomitant vegetative state (total number of grooming acts, fecal boluses, and urinations) / Orientation and exploratory activity (number of explored openings and upright positions) / Sum of all results / Locomotor activity (number of squares): imipramine 15 mg/kg i.p., tetrapeptide (LYS) 0.02 mg/kg i.n.
Procedure: The experiment was conducted on 16 white random-bred adult male rats weighing:
180-220 g. The antidepressant activity of tetrapeptide (LYS), a neuroprotector, at a 0.02 mg/kg dose intranasally (i.n.) was evaluated. […] The experiment was conducted in two stages. […] 25-30 min. prior to the start of the experiment, the animals were administered their respective drugs. The animals in the control group were administered 0.9% NaCl solution i.p. and i.n. in the volume equal to the volume of the medications. After that, the animals of all groups were placed in the open field (OF) for 3 min., and their locomotor (number of crossed squares), orientation, and exploratory (number of upright positions and explored openings) activity as well as their emotional reactions (fecal boluses, urination, grooming) were evaluated. The indicators of depression in the animals (latent immobilization period, the number of such instances, and their total duration) were evaluated in the Popsolt swim test (PST) over 6 min. In the next 2 days, all the medications were administered at the same dose once a day; the last administration—30 min before the depressogenic sympatholytics of reserpine. Reserpine was administered on the 3rd day (2nd stage of the experiment) at a 4 mg/kg dose i.p. (as a suspension stabilized with Tween-80). Animals in all 3 groups were evaluated 6-7 hr. later in the OF and PST.
Test results were statistically processed. When the data distribution was normal, the parametric Student's t-distribution test was applied, when it was absent, the non-parametric MannWhitney U-test was used. When processing the results in an alternative form (presence/absence of the indicator), Fisher's angular transformation φ was applied. Wilcoxon paired t-criterium test was used for the intra-group statistical evaluation of the changed in the animal test results prior and post simulated depression. The results were considered to be statistically significant when p<0.05.

[2] = Brain weight coefficient (BWC) in rat models with Alzheimer's disease; type: in vivo; details: statistically insignificant; donepezil 1 mg/kg, tetrapeptide 0.1 mg/kg
Procedure: (§1) The drugs were administered daily, once a day.
The OF and EE tests were conducted on the 1st day, PST—on the 2nd day, CPAR—on the 1st and 10th day post treatment with the preparations. […] The antiamnesic action (AA) in the CPAR test was calculated using Butler's formula [K. S. Radionova. […] After that, the animals were removed from the experiment by administering a narcotic, followed by decapitation. The brain was extracted and weighed, and the brain weight coefficient (BWC) was calculated. Immediately after extraction, the brain was frozen in liquid nitrogen and used in subsequent biochemical and histochemical studies. Glucose levels in whole arterial (common carotid artery) and venous (venous cerebral sinus) blood were determined by the glucose oxidase test, the difference in the arterial-venous glucose content was calculated (glucose consumption marker). The levels of average weight molecules—the toxic products of cell biodegradation damaged during the disease (nucleoside derivatives, peptoids, glucuronic acid salts, etc.) in the blood serum (AWM) were calculated [A. N. Kovalevsky. Notes on the screening method of determination average weight molecules/A. N. Kovalevsky, O. Ye. Nifantiev//Lab. Science. […] 35-39].

[3] = test system: rat models with AD; test: Open field (OF) test, scopolamine-induced Alzheimer's disease model; type: in vivo; details: scopolamine AD rats; 0.1 mg/kg i.n. 10 days; p<0.05
Procedure: White random-bred adult male rats weighing 200-240 g were used. Groups of 7 animals per group were formed. 1st group—control, 2nd—pathology, 3rd—comparator drug, 4th-6th—neuropeptides.
as §1
After a course of treatment with the preparations, the CNS function of the animals was evaluated according to the open field (OF), extrapolation escape (EE), and conditioning passive avoidance reflex (CPAR) tests [Guidelines for conducting nonclinical studies of pharmaceuticals/edited by A. N. Mironov, MD, PhD, Part 1, M.: Grief and K, 2012-944 p.; Methods of behavior analysis in neuroscience—London, New York, Washington: CRCPress, 2001.-329 p.], and also The Porsolt swim test (PST) [Methods of behavior analysis in neuroscience—London, New York, Washington: CRCPress, 2001.-329 p; Porsolt R. D. Depression: A new animal model sensitive to antidepressant treatments/R. D. Porsolt, M. LePichon, M. Oalfre//Nature.—1977.—Vol. 266.—P. 730-732.].
The OF and EE tests were conducted on the 1st day, PST—on the 2nd day, CPAR—on the 1st and 10th day post treatment with the preparations. […] The antiamnesic action (AA) in the CPAR test was calculated using Butler's formula [K. S. Radionova. […] The brain was extracted and weighed, and the brain weight coefficient (BWC) was calculated. […]

[4] = test system: acetylcholine; test: Acetylcholine content in the brain homogenate of rat models with Alzheimer's disease; type: in vivo; details: compared to the control, pathology and donepezil groups, p<0.05
Procedure: as §1
1966, t. […] M. I. Prokhorova, Leningrad, pub. House LSU, 1982.—pp. 256-258].

[5] = test system: serotonin; test: Serotonin level in the brain of rat models with Alzheimer's disease; type: in vivo; details: donepezil 1 mg/kg, tetrapeptide 0.1 mg/kg
Procedure: as §1
M. I. Prokhorova, Leningrad, pub.

[6] = R - reserpine-induced depression

acetyl-D-Lys-Lys-Arg-Arg-amide (Ac-[dK]KRR-NH2; SMILES CC(=O)N[C@H](CCCCN)C(=O)N[C@@H](CCCCN)C(=O)N[C@@H](CCCNC(=N)N)C(=O)N[C@@H](CCCNC(=N)N)C(N)=O) [tetrapeptide (LYS), peptide acetyl-X-ARG-ARG-amide, X = D- and L-amino acid residues of lysine]
Emotional reactions and concomitant vegetative state (total number of grooming acts, fecal boluses, and urinations) ([1]; I - intact animals): 1.8 ± 0.77^
Orientation and exploratory activity (number of explored openings and upright positions) ([1]; I - intact animals): 5.8 ± 0.77
Sum of all results ([1]; I - intact animals): 11.6 ± 2.49*^
Locomotor activity (number of squares) ([1]; I - intact animals, 3 min): 4.0 ± 1.34*^
Locomotor activity (number of squares) ([1]; R - reserpine-induced depression (4 mg/kg i.p.)): 3.4 ± 2.4
Emotional reactions and concomitant vegetative state (total number of grooming acts, fecal boluses, and urinations) [1, 6]: 0.2 ± 0.2
Orientation and exploratory activity (number of explored openings and upright positions) [1, 6]: 4.6 ± 2.4
Sum of all results [1, 6]: 8.2 ± 4.98
Emotional reactions and concomitant vegetative state, % change reserpine-induced depression vs. intact animals ([1]; R vs I): (−88.9%) ®
Locomotor activity, % change reserpine-induced depression vs. intact animals ([1]; R vs I): (−15.0%)
Orientation and exploratory activity, % change reserpine-induced depression vs. intact animals ([1]; R vs I): (−20.69%)
Sum of all results, % change reserpine-induced depression vs. intact animals ([1]; R vs I): (−29.3%)
decrease of emotional reaction level compared to intact animals ([1]; reserpine-induced depression): 9 times
reduction of locomotor activity (crossed squares) compared to intact animals ([1]; reserpine-induced depression): 15%
reduction of orientation and exploratory activity compared to intact animals ([1]; reserpine-induced depression): 20.7%
reduction of the sum of all types of activities compared to intact animals ([1]; reserpine-induced depression): 29.3%
reduction of the brain weight coefficient (BWC) [2]: 14.3%
reduction of the number of grooming acts in the OF [3]: 44.7%
content of acetylcholinesterase in the brain (FIG. 11) [4]: statistically significantly reduces
reduction of the serotonin level in the brain [5]: 23.8%
